Test results as given in publication PMC11066877, “Development and Characterization of Novel FAP-Targeted Theranostic Pairs: A Bench-to-Bedside Study” (Research, 2023).

Key:
[1] = Ex vivo biodistribution of 177Lu-labeled radioligands in tumor-free nude mice; conditions: mouse, intravenous, 1.11 MBq, total radioactivity
Description: After imaging collection and image reconstruction, samples from euthanized experimental mice, including blood and multiple significant organs, were harvested and weighed. The radioactivity in each collected tissue was counted using an automated gamma counter (Wizard 2480, PerkinElmer) and the accumulation of radioactivity in different tissues and organs was quantified and expressed as %ID/g (mean ± SD). [^177Lu]Lu-DOTA-FD1 (~1.11 MBq, n = 3), [^177Lu]Lu-DOTA-FD2 (~1.11 MBq, n = 3), and [^177Lu]Lu-DOTA-FD3 (~1.11 MBq, n = 3) were injected into the tail vein of free nude mice at 6 h, 24 h, and 24 h for ex vivo biodistribution to verify the circulation time of the 3 probes in vivo. Biodistribution data from tumor-bearing mice injected with [^177Lu]Lu-DOTA-FD3 at 45 h (~1.11 MBq, n = 4) and 90 h (~1.11 MBq, n = 3) validated the prolonged enrichment of the probe at the tumor site. At the end of each probe imaging and radioactivity counting study, tumor tissues were fixed in paraformaldehyde tissue fixative. Briefly, sections of 10 μm were cut and stained for H&E following the standard protocols. IHC staining with a FAP antibody (ab227703, Abcam) was performed only on tumor tissues following accepted techniques.

HT1080-FAP tumor = assay: FAP-targeted radioligand therapy in HT1080-FAP tumor models; type: in vivo, mice
Protocol: HT1080-FAP tumor models with higher levels of FAP expression were utilized in this study. Tumor-bearing mice were subjected to therapy experiments when the tumor volume reached 50 to 180 mm^3. Tumor models with different tumor volumes were injected with different therapeutic doses. Mice bearing HT1080-FAP tumors of slightly larger tumor volumes were randomly assigned into 4 groups (n = 5 per group): control group and treatment groups with 800 μCi of [^177Lu]Lu-DOTA-FD1, 400 μCi of [^177Lu]Lu-DOTA-FD3, and 600 μCi [^177Lu]Lu-DOTA-FD3. Mice bearing HT1080-FAP tumors of slightly smaller tumor volumes were also divided into 4 groups (n = 6 per group): control group and treatment groups with 200 μCi of [^177Lu]Lu-DOTA-FD1, 200 μCi of [^177Lu]Lu-DOTA-FD2, and 200 μCi of [^177Lu]Lu-DOTA-FD3. Tumor volume and mice body weight were examined daily after a single-dose injection. Weight monitoring is expressed as a percentage of initial weight on the measurement day. Tumor volume was measured as half of the length × width squared times. Mice were euthanized when the tumor volume exceeded 1,500 mm^3, the tumor ruptured, or when it lost more than 20% of its body weight. T3M-4 tumor models with abundant stroma were established to validate the therapeutic efficacy of [^177Lu]Lu-DOTA-FD3. When the tumor volume grew to 100 to 150 mm^3, the mice were randomly divided into 2 groups (n = 7 per group): free ^177Lu treatment group and 500 μCi [^177Lu]Lu-DOTA-FD3 treatment group. Tumor volume and mice body weight were examined every 2 days.

[2] = Stability of 177Lu-labeled radiopharmaceuticals in FBS and PBS; type: in vitro ADME; conditions: 50% FBS and 50% PBS, checked at 2 h and 24 h
Protocol: To perform ^68Ga-labeling, approximately 20 nmol of FD1, FD2, or FD3 was dissolved in 20 μl of dimethyl sulfoxide and 230 μl of sterile deionized water. This mixture was added to 400 μl of ^68GaCl3 solution (containing 37 MBq) in 0.1 M HCl, with pH adjusted to 4.0 using 0.1 M NH4OAC. The mixture was incubated at 100 °C for 10 min without any additional purification steps. For ^177Lu-labeling, high-purity radionuclide ^177LuCl3 in 0.04 M HCl (3.9 GBq in 97 μl) was purchased from ITM (Munich, Germany). ^177LuCl3 solution (555 MBq in 0.04 M HCl) was added to 500 μl of 1M NH4OAC (pH = 5), followed by the addition of 375 nmol of FD1, FD2, or FD3. The solution was shaken at a temperature of 100 °C for a duration of 30 min. Instant thin-layer chromatography (iTLC; Eckert & Ziegler Radiopharma Inc.) was used to evaluate the RCP of the final products. For iTLC, the mobile phase consisted of 1 M NH4OAC and methyl alcohol in a ratio of 1:1. The final solution must be adjusted to pH 7.0 before being injected into the experimental mice via the tail vein. The stability of ^177Lu-labeled radiopharmaceuticals was evaluated in a mixture of 50% FBS and 50% PBS at 2 h and 24 h after preparation. In the process of preparing each [^68Ga]Ga-DOTA-FD1 for clinical imaging, the end product underwent sterilization by passing it through a 0.22-μm Millipore filter.

[3] = microPET/CT imaging, ROI analysis, HT-1080 tumor models; type: in vivo, mice; conditions: nude (thymus-free), mouse, intravenous, 3 MBq, 4 h p.i.
Protocol: (§1) A human pancreatic cancer cell line BxPC-3 and a murine pancreatic cancer cell Panc-02 were obtained from the American Type Culture Collection. The pancreatic cancer cell line T3M-4 was purchased by MeisenCTCC (Zhejiang, China). BxPC-3 and T3M-4 cell lines were grown in RPMI 1640 medium (Shanghai BasalMedia Technologies Co., LTD.) containing 10% FBS (GE Healthcare, Chicago, IL, USA) and 1% penicillin–streptomycin solution (Invitrogen). To culture the Panc-02 cell line, a medium called Dulbecco’s modified Eagle medium from Shanghai BasalMedia Technologies Co., LTD. was used, which consisted of 10% FBS. The cell line HT-1080 was grown in MEM medium (Shanghai BasalMedia Technologies Co., LTD.) supplemented with 10% FBS, 1% penicillin-streptomycin solution, and 1% nonessential amino acids (NEAA-11140050; Gibco). A human fibrosarcoma cell line was stably transfected with FAP (HT1080-FAP) and cultured, as we previously described. All cell lines were cultured in a humid incubator with 5% CO2 at a temperature of 37 °C. Approval was granted by the Institutional Animal Care and Use Committee (Renji Hospital, School of Medicine, Shanghai Jiao Tong University) for all experimental protocols and procedures related to animal care. Panc-02 cells were implanted by subcutaneous injection of 5 × 10^6 tumor cells suspended in 100 μl PBS and matrigel matrix (Corning) with equal volume into the upper limb flank of C57BL/6 mice (Shanghai Sheng Chang Biotechnology Co., Ltd.). Four- to 6-week-old thymus-free nude mice (GemPharmatech) were subcutaneously inoculated with BxPC-3, T3M-4, HT-1080, and HT1080-FAP cells (5 × 10^6 in 100 μl of PBS mixing with 100 μl matrigel matrix) in the right shoulder. […]
(§2) MicroPET imaging was performed on isoflurane-anesthetized mice injected intravenously via the lateral tail vein with around 3 MBq (2.5 nmol) of the radioligand at certain times. […] The information was analyzed using OsiriX Lite software (Pixmeo SARL) and Inveon Research Workplace (Siemens Preclinical Solutions). […]

[4] = microPET/CT imaging, ROI analysis, Panc-02 tumor models; type: in vivo, mice; conditions: C57BL/6, mouse, intravenous, 3 MBq, 4 h p.i.
Protocol: as §1, §2

[5] = microPET/CT imaging, ROI analysis, BxPC-3 tumor models; type: in vivo, mice; conditions: nude (thymus-free), mouse, intravenous, 3 MBq, 4 h p.i.
Protocol: as §1, §2

| tissue uptake at 24 h ([1]; blood, 24 h p.i., read-out: accumulation in the blood pool (biodistribution)) | stable in FBS and PBS, no significant demetallation [2] | tissue uptake at 6 h ([1]; kidney, 6 h p.i., read-out: radioactivity uptake in kidneys (biodistribution)) | tissue uptake at 4 h [3] | tissue uptake at 4 h [4] | tissue uptake at 4 h [5] | SMILES | tumor growth at the end of the study (HT1080-FAP tumor; average tumor volume 50 mm^3 at onset, single dose 200 μCi) | mice that acquired complete response (CR) (HT1080-FAP tumor; average tumor volume 50 mm^3 at onset, single dose 200 μCi, 6 mice per group) | tumor volume versus control group (HT1080-FAP tumor; average tumor volume 180 mm^3 at onset, single dose 800 μCi) |
| --- | --- | --- | --- | --- | --- | --- | --- | --- | --- |
| 31.8 ± 2.24 %ID/g | at least 24 h | – | – | – | – | CCCCCC(=O)N[C@H]1CSCc2cc(CSCCNC(=O)[C@H](CCCCNC(=O)CCCc3ccc(I)cc3)NC(=O)CN3CCN(CC(=O)O)CCN(CC(=O)O)CCN(CC(=O)O)CC3)cc(c2)CSC[C@@H](C(=O)O)NC(=O)[C@H](Cc2ccccc2)NC(=O)[C@H](CCC(N)=O)NC(=O)[C@H]([C@@H](C)O)NC(=O)[C@@H]2CCCN2C(=O)[C@@H]2CCCN2C1=O [[^177Lu]Lu-DOTA-FD2, metal not drawn] | substantially inhibited the tumor growth | 1 of the 6 | – |
| – | at least 24 h | 30.4 ± 3.1 %ID/g | – | – | – | CCCCCC(=O)N[C@H]1CSCc2cc(CSCCNC(=O)[C@H](CCCCN)NC(=O)[C@@H](NC(=O)[C@H](CCSC)NC(=O)CN3CCN(CC(=O)O)CCN(CC(=O)O)CCN(CC(=O)O)CC3)C(C)C)cc(c2)CSC[C@@H](C(=O)O)NC(=O)[C@H](Cc2ccccc2)NC(=O)[C@H](CCC(N)=O)NC(=O)[C@H]([C@@H](C)O)NC(=O)[C@@H]2CCCN2C(=O)[C@@H]2CCCN2C1=O [[^177Lu]Lu-DOTA-FD1, metal not drawn] | – | – | no difference in tumor volume |
| – | – | – | 9.97 ± 0.42 %ID/g | 7.03 ± 1 %ID/g | 7.07 ± 0.45 %ID/g | CCCCCC(=O)N[C@H]1CSCc2cc(CSCCNC(=O)[C@H](CCCCNC(=O)CCCc3ccc(I)cc3)NC(=O)[C@@H](NC(=O)[C@H](CCSC)NC(=O)CN3CCN(CC(=O)O)CCN(CC(=O)O)CCN(CC(=O)O)CC3)C(C)C)cc(c2)CSC[C@@H](C(=O)O)NC(=O)[C@H](Cc2ccccc2)NC(=O)[C@H](CCC(N)=O)NC(=O)[C@H]([C@@H](C)O)NC(=O)[C@@H]2CCCN2C(=O)[C@@H]2CCCN2C1=O [[^68Ga]Ga-DOTA-FD3, metal not drawn] | – | – | – |
